Results as given in article PMC7026882, “Macrofilaricidal Benzimidazole–Benzoxaborole Hybrids as an Approach to the Treatment of River Blindness: Part 2. Ketone Linked Analogs” (ACS Infectious Diseases, 2019).
pIC50: −log10 of the molar value. Like-named read-outs stand apart in the source and are kept apart here.

What was measured:
[1] = system: mammalian tubulin (G2/M arrest); test: G2/M arrest assay, indicative of interaction with mammalian tubulin; format: cell-based
Description: (§1) As summarized in Table 1, we were encouraged to find that the initial ketone analogs prepared, namely, 15 (6-linked) and 20 (5-linked), were quite active in an O. volvulus molting assay we used as a primary indicator of antiparasitic activity[30],[31] and were only weakly active in a G2/M arrest,[32] indicative of the interaction with mammalian tubulin. As described above, our hypothesis was to reduce Pgp efflux liability through elimination of the hydrogen-bond donor associated with the N–H of the amide linker, as this has been shown in the literature to be a contributor to recognition by Pgp.[33],[34] […] We were disappointed to find that the 5-linked analog 22 was poorly selective and the 6-linked analog 23 was only weakly active.

[2] = Metabolite ID studies, in vitro and in vivo; format: in vitro ADME; details: in vitro or in vivo experiments
Description: However, the metabolism of flubendazole by the reduction of the ketone leads to short-lived clastogenic metabolites at low levels that may pose a minimal risk.[28]

[3] = MDCK-MDR1 cell monolayer permeability assay; format: in vitro ADME; details: dog
Description: as §1

MDCK-MDR1 cell monolayer = MDCK-MDR1 cell monolayer permeability assay; format: in vitro ADME
Description: as §1

[4] = Pharmacokinetics in Mongolian gerbils; format: in vivo
Description: (§2) In addition, the concentrations achieved at these doses were well in excess of the O. volvulus IC50, a requirement for in vivo activity that we had hypothesized on the basis of earlier work in the amide-linked series.

O. volvulus = O. volvulus molting assay; format: cell-based; details: Onchocerca volvulus; molting assay
Description: as §1, with “active. […]” for “active.”
(§3) in comparison to the number of control larvae that had successfully molted. IC50 values were calculated using GraphPad Prism v6.0 (http://www.graphpad.com). See Bullman et al., PLoS
(§4) Negl. Trop. Dis., 2015, 9, e3534 for further details.
(§5) Adult Brugia malayi in vivo model procedure.
(§6) Gerbils (Meriones unguiculatus) were infected by transplantation of 10 male and 10 female adult Brugia malayi into the peritoneal cavity. Gerbils were acclimated for 7 days prior to treatment. Animals were dosed based on their body weight prior to each dosing. Animals were administered their doses at the same time each day and receive standard rodent laboratory diet and water ad libitum. Gerbils were humanely euthanized at the conclusion of each study.
(§7) Peritoneal counts of male and female adult B. malayi and visual condition of the peritoneum […]
(§8) L3 Brugia pahangi in vivo model procedure.
(§9) Male gerbils (Meriones unguiculatus) approximately 6 weeks of age (50-60 g) were purchased from Charles Rivers (USA, Kingston K62 Gerbils) and infected by intraperitoneal injection with 200 Brugia pahangi third-stage larvae (L3) per animal (Filariatech, Inc., Athens, GA). Gerbils were housed with no more than 5 animals per cage and maintained 9 months prior to treatment. All gerbils were dosed in accordance with their body weight determined prior to each dosing. Animals were administered their doses at the same time each day and are allowed to feed and drink ad libitum. Gerbils were euthanized following approved institutional protocols. Euthanized animals were weighed and examined for external and visceral pathologies. The adult Brugia worms were recovered by opening the body cavity and washing the peritoneal cavity with 100 mL of phosphate buffered saline. Male and female worms were counted using a dissecting microscope.
(§10) Litomosoides sigmodontis in vivo model procedure. 2
(§11) All animal experiments with L. sigmodontis were conducted at the Institute for Medical Microbiology, Immunology and Parasitology (IMMIP), University Hospital of Bonn, in accordance to the European Union animal welfare guidelines. All protocols were approved by the local authorities (Landesamt für Natur, Umwelt und Verbraucherschutz, Cologne, Germany (AZ 84- […]
(§12) Janvier (Saint-Berthevin, France) and were housed at the animal facility of the IMMIP in individually ventilated cages on a 12h light/dark cycle with food and water ad libidum. Mice were infected at 6-8 weeks of age via exposure to the natural mite vector Ornithonyssus bacoti

Brugia pahangi = test: In vivo efficacy in the L3 Brugia pahangi gerbil model; details: for Number of Worms Recovered, Avg Female Worms / Number of Worms Recovered, Avg Male Worms: PO, 100 mg/kg, recovery day 63
Experimental: For our in vivo model, gerbils were infected by injecting B. pahangi third-stage larvae (L3) that were subsequently allowed to develop to adult worms over several months. Once stable infections had been established, 21 was administered as a suspension via once-daily oral gavage at a dose of 100 mg/kg for 7, 14, or 28 days. All animals were maintained until day 63 after the start of dosing, at which time adult worms were recovered from the peritoneal cavity and microfilariae were quantified in blood samples. Flubendazole (5 mg/kg, SC × 5 days) was included as a positive control in this study. […]
as §3, §4, §5, §6, §7, §8, §9, §10, §11, §12

[5] = Tolerability of once daily dosing to gerbils over 7 days; format: in vivo
Description: as §2

[6] = Metabolic stability (Clint) in human microsomes; format: in vitro ADME
Description: as §1

SMILES: COC(=O)Nc1nc2ccc(C(=O)c3cccc4c3B(O)OC4)cc2[nH]1 [compound 21]
- pIC50 [1]: < 4.42
- metabolism in metabolite ID studies [2]: have not observed a significant metabolism
- Papp [3]: 56.6 ×10⁻⁶ cm/s
- MDCK-MDR1 Papp (A-B) (MDCK-MDR1 cell monolayer): 56.6 ×10⁻⁶ cm/s
- CLint scaled ([4]; Mongolian gerbil, blood, 2 mg/kg, Table 3, IV, dose 2): 4.82 mL/min/kg
- AUC0-last ([4]; Table 3, IV, dose 2): 5950 ng·h/mL
- Cmax ([4]; Table 3, IV, dose 2): 1560 ng/mL
- AUC0-last ([4]; Table 3, PO, dose 10): 61700 ng·h/mL
- Cmax ([4]; Table 3, PO, dose 10): 5750 ng/mL
- AUC(0-t) ([4]; blood, 2 mg/kg, Mongolian gerbils, dose 2, IV, read-out: AUC0–24): 5950 ng·h/mL
- Cmax ([4]; blood, 2 mg/kg, Mongolian gerbils, dose 2, IV, read-out: Cmax): 1560 ng/mL
- Vd ([4]; blood, 2 mg/kg, Table 3, IV, dose 2, read-out: Vdss): 3.19 L/kg
- AUC(0-t) ([4]; blood, 10 mg/kg, Mongolian gerbils, dose 10, PO, read-out: AUC0–24): 61700 ng·h/mL
- Cmax ([4]; blood, 10 mg/kg, Mongolian gerbils, dose 10, PO, read-out: Cmax): 5750 ng/mL
- AUC(0-t) ([4]; blood, 10 mg/kg, Table 3, SC, dose 10, read-out: AUC0-last): 35700 ng·h/mL
- Cmax ([4]; blood, 10 mg/kg, Table 3, SC, dose 10, read-out: Cmax): 3130 ng/mL
- AUC(0-t) ([4]; blood, 30 mg/kg, Table 3, PO, dose 30, read-out: AUC0-last): 196000 ng·h/mL
- Cmax ([4]; blood, 30 mg/kg, Table 3, PO, dose 30, read-out: Cmax): 17200 ng/mL
- AUC(0-t) ([4]; blood, 60 mg/kg, Table 3, PO, dose 60, read-out: AUC0-last): 361000 ng·h/mL
- Cmax ([4]; blood, 60 mg/kg, Table 3, PO, dose 60, read-out: Cmax): 26300 ng/mL
- AUC(0-t) ([4]; blood, 100 mg/kg, Table 3, PO, dose 100, read-out: AUC0-last): 479000 ng·h/mL
- Cmax ([4]; blood, 100 mg/kg, Table 3, PO, dose 100, read-out: Cmax): 34500 ng/mL
- bioavailability ([4]; blood, po, 10 mg/kg, Mongolian gerbils, dose 10, PO, read-out: bioavailability (%F)): ~100%
- bioavailability ([4]; blood, po, 10 mg/kg, Table 3, PO, dose 10, read-out: %F): 100%
- bioavailability ([4]; blood, sc, 10 mg/kg, Table 3, SC, dose 10, read-out: %F): 100%
- accumulation of the compound ([4]; once daily dosing to gerbils over 7 days): no accumulation
- dose proportionality of exposure ([4]; oral dosing to gerbils, up to 100 mg/kg): dose proportional
- pIC50 (O. volvulus): 7.00
- effective in killing female worms (Brugia pahangi; 100 mg/kg PO once daily for 14 days): 99%
- effective in killing female worms (Brugia pahangi; 100 mg/kg PO once daily for 28 days): 99%
- effect on worms (Brugia pahangi; 100 mg/kg PO once daily for only 7 days): very little effect
- Number of Worms Recovered, Avg Female Worms (Brugia pahangi; 7 days, QD): 13.0
- Number of Worms Recovered, Avg Male Worms (Brugia pahangi; 7 days, QD): 25.2
- Number of Worms Recovered, Avg Female Worms (Brugia pahangi; 14 days, QD): 0.6
- Number of Worms Recovered, Avg Male Worms (Brugia pahangi; 14 days, QD): 11.4
- Number of Worms Recovered, Avg Female Worms (Brugia pahangi; 28 days QD): 0.1
- Number of Worms Recovered, Avg Male Worms (Brugia pahangi; 28 days QD): 11.1
- tolerability [5]: well tolerated
- microsomal CLint [6]: 5.9 µL/min/mg
